Assay results from PubChem BioAssay (NCI).
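Cultured in 96-well plates, cells were exposed to test compound for 48 hours across five concentrations. GI50 is the concentration that inhibits growth by half. TGI is the concentration that stops growth completely.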

Tests used:
Assay in all cases: NCI anticancer screen, dose series, 48 h
A498 renal = test system: A498 renal
CAKI-1 renal = test system: CAKI-1 renal
KM12 colon = test system: KM12 colon
MALME-3M melanoma = test system: MALME-3M melanoma
MOLT-4 leukemia = test system: MOLT-4 leukemia
NCI-H226 lung = test system: NCI-H226 lung
NCI-H23 lung = test system: NCI-H23 lung
OVCAR-5 ovarian = test system: OVCAR-5 ovarian
T-47D breast = test system: T-47D breast
UO-31 renal = test system: UO-31 renal

Row | SMILES | GI50 (A498 renal) | TGI (A498 renal) | GI50 (CAKI-1 renal) | TGI (CAKI-1 renal) | GI50 (KM12 colon) | TGI (KM12 colon) | GI50 (MALME-3M melanoma) | TGI (MALME-3M melanoma) | GI50 (MOLT-4 leukemia) | TGI (MOLT-4 leukemia) | GI50 (NCI-H226 lung) | TGI (NCI-H226 lung) | GI50 (NCI-H23 lung) | TGI (NCI-H23 lung) | GI50 (OVCAR-5 ovarian) | TGI (OVCAR-5 ovarian) | GI50 (T-47D breast) | TGI (T-47D breast) | GI50 (UO-31 renal) | TGI (UO-31 renal)
1 | CCc1c(Oc2ccc(C(C)=O)cc2)c2ccccc2[nH]c1=O | 17.2 µM | 32 µM | 15.8 µM | 53.3 µM | 18.6 µM | > 60.9 µM | 9.09 µM | 42.3 µM | 28 µM | > 100 µM | 2.8 µM | 43.9 µM | 18.7 µM | 59.5 µM | 31.8 µM | > 100 µM | 4.07 µM | 24.6 µM | 19.5 µM | > 100 µM
2 | CC1OC(O[C@H]2C[C@@H](O)[C@]3(CO)[C@H]4[C@H](O)C[C@]5(C)[C@@H](C6=CC(=O)OC6)CC[C@]5(O)[C@@H]4CC[C@]3(O)C2)C(O)C(O)C1O (stereo not given in full) | 20.4 µM | 39 µM | 17.7 µM | 33.9 µM | 17.8 µM | 32.3 µM | 19.5 µM | 35.9 µM | 17.9 µM | 41.8 µM | 22.7 µM | 52 µM | 21.5 µM | 41.8 µM | 35.7 µM | > 100 µM | 24.9 µM | 51.5 µM | 24.7 µM | 57.1 µM
3 | Cc1cc(I)cc(CNCCCN2CCSCC2)c1O | 13.7 µM | 28.5 µM | 15.1 µM | 32.7 µM | 16.9 µM | 35.9 µM | 17.3 µM | 33.9 µM | 15.1 µM | 33.9 µM | 24.5 µM | 79.8 µM | 20.9 µM | 63.7 µM | 15.9 µM | 41.7 µM | 16 µM | 40.6 µM | 14.3 µM | 41.8 µM
